Measured values as given in ChEMBL document CHEMBL6177955, “Design, synthesis and biological evaluation of Golgi-targeting anion transporters as inducers of Golgiphagy and apoptosis in cancer cells” (Eur J Med Chem, 2025).
Calls of active or inactive are those of the source. The calls are words filed in the database; no cut-off is given here.

Experiments:
Lipid bilayer [1] = test: Vesicular anionophoric activity in large unilamellar vesicle membrane derived from egg-yolk L-alpha-phosphatidylcholine assessed as induction of relative efflux of chloride ions in presence of potassium (K+) measured up to 300 seconds by using chloride-selective electrode; conditions: time <= 300.0 sec
Lipid bilayer [2] = test: Vesicular anionophoric activity in large unilamellar vesicle membrane derived from egg-yolk L-alpha-phosphatidylcholine assessed as induction of relative efflux of chloride ions in presence of rubidium (Rb+) measured up to 300 seconds by using chloride-selective electrode; conditions: time <= 300.0 sec
A2780 = test: Antiproliferative activity against human A2780 cells by MTT assay; assay type: functional, cell-based
HepG2 [3] = test: Antiproliferative activity against human HepG2 cells by MTT assay; assay type: functional, cell-based
HepG2 [4] = test: Induction of chloride ion influx in human HepG2 cells assessed as effect on lysosomal chloride anions at 5 to 20 uM measured after 12 hrs incubation by chloride-sensitive dye MQAE-MP based CLSM imaging analysis; assay type: functional, cell-based; conditions: dose 5-20 µM
HepG2 [5] = test: Disruption of homeostasis of chloride anions in golgi apparatus of human HepG2 cells assessed as increase in fluorescence intensity of 6-methoxy-1-(2-oxo-2-((4-sulfamoylphenyl)amino)ethyl)quinolin-1-ium Bromide measured after 12 hts by CLSM imaging analysis; assay type: functional, cell-based
HepG2 [6] = test: Suppression of Golgi structural and functional protein expression in human HepG2 cells assessed as decrease in GRASP55 protein expression at 5 to 20 uM measured after 48 hrs incubation by Western blot analysis; assay type: cell-based; conditions: dose 5-20 µM
HepG2 [7] = test: Induction of Golgi apparatus disruption in human HepG2 cells at 5 to 10 uM measured after 24 hrs by TEM imaging analysis; assay type: functional, cell-based; conditions: dose 5-10 µM
HepG2 [8] = test: Effect on dysregulation mediated autophagy in human HepG2 cells assessed as increase in LC3B marker expression at 5 to 20 uM measured after 48 hrs incubation by Western blot analysis; assay type: functional, cell-based; conditions: dose 5-20 µM
HepG2 [9] = test: Induction of autophagosome formation in human HepG2 cells assessed as green fluorescence in endoplasmic reticulum (ER) by measuring pearson co-localization at 10 uM measured after 12 hrs incubation by mCherry-LC3B assay; assay type: functional
HepG2 [10] = test: Induction of autophagosome formation in human HepG2 cells assessed as green fluorescence in lysosomes by measuring pearson co-localization at 10 uM measured after 12 hrs incubation by mCherry-LC3B assay; assay type: functional
HepG2 [11] = test: Induction of autophagosome formation in human HepG2 cells assessed as green fluorescence in Golgi apparatus by measuring pearson co-localization at 10 uM measured after 12 hrs incubation by mCherry-LC3B assay; assay type: functional
HepG2 [12] = test: Induction of apoptosis in human HepG2 cells assessed as viable cells at 5 uM measured after 24 hrs incubation by Propidium iodide/Annexin V-FITC analysis (reference value: 90.2%); assay type: functional; conditions: read-out: Activity
HepG2 [13] = test: Induction of apoptosis in human HepG2 cells assessed as early apoptotic cells at 5 uM measured after 24 hrs incubation by Propidium iodide/Annexin V-FITC analysis (reference value: 2.90%); assay type: functional
HepG2 [14] = test: Induction of apoptosis in human HepG2 cells assessed as necrotic cells at 5 uM measured after 24 hrs incubation by Propidium iodide/Annexin V-FITC analysis (reference value: 1.14%); assay type: functional
HepG2 [15] = test: Induction of apoptosis in human HepG2 cells assessed as late apoptotic cells at 10 uM measured after 24 hrs incubation by Propidium iodide/Annexin V-FITC analysis (reference value: 5.71%); assay type: functional
HepG2 [16] = test: Induction of apoptosis in human HepG2 cells assessed as viable cells at 20 uM measured after 24 hrs incubation by Propidium iodide/Annexin V-FITC analysis (reference value: 90.2%); assay type: functional; conditions: read-out: Activity
HepG2 [17] = test: Induction of apoptosis in human HepG2 cells assessed as early apoptotic cells at 20 uM measured after 24 hrs incubation by Propidium iodide/Annexin V-FITC analysis (reference value: 2.90%); assay type: functional
HepG2 [18] = test: Induction of apoptosis in human HepG2 cells assessed as late apoptotic cells at 20 uM measured after 24 hrs incubation by Propidium iodide/Annexin V-FITC analysis (reference value: 5.71%); assay type: functional
HepG2 [19] = test: Induction of apoptosis in human HepG2 cells assessed as necrotic cells at 20 uM measured after 24 hrs incubation by Propidium iodide/Annexin V-FITC analysis (reference value: 1.14%); assay type: functional
HepG2 [20] = test: Cell cycle arrest in human HepG2 cells assessed as accumulation of cells at G2/M phase at 5 uM measured after 24 hrs incubation by flow cytometric analysis; assay type: functional
HepG2 [21] = test: Cell cycle arrest in human HepG2 cells assessed as accumulation of cells at G2/M phase at 20 uM measured after 24 hrs incubation by flow cytometric analysis; assay type: functional
HepG2 [22] = test: Antitumor activity against human HepG2 cells xenografted mouse model assessed as reduction in tumor growth inhibition at 5 mg/kg, ip administered once every 2 days for 21 days relative to control; assay type: functional; conditions: HepG2, 504 h, time 21 day, read-out: TGI
HepG2 [23] = test: Antitumor activity against human HepG2 cells xenografted mouse model assessed as reduction in tumor growth inhibition at 10 mg/kg, ip administered once every 2 days for 21 days relative to control; assay type: functional; conditions: HepG2, 504 h, time 21 day, read-out: TGI
[24] = Toxicity in mouse xenografted with human HepG2 cells assessed as histopathological changes in heart at 5 to 10 mg/kg, ip administered once every 2 days for 21 days by H and E staining based analysis; assay type: organism-based; conditions: in vivo, 504 h, dose 5-10 mg/kg, time 21 day
[25] = Toxicity in mouse xenografted with human HepG2 cells assessed as histopathological changes in liver at 5 to 10 mg/kg, ip administered once every 2 days for 21 days by H and E staining based analysis; assay type: organism-based; conditions: in vivo, 504 h, dose 5-10 mg/kg, time 21 day
HepG2 [26] = test: Antitumor activity against human HepG2 cells xenografted mouse model assessed as reduction GM130 expression in tumor tissue at 5 to 10 mg/kg, ip administered once every 2 days for 21 days; assay type: functional, organism-based; conditions: dose 5-10 mg/kg, time 21.0 day
HepG2 [27] = test: Antitumor activity against human HepG2 cells xenografted mouse model assessed as reduction GRASP55 expression in tumor tissue at 5 to 10 mg/kg, ip administered once every 2 days for 21 days; assay type: functional, organism-based; conditions: dose 5-10 mg/kg, time 21.0 day
HepG2 [28] = test: Antitumor activity against human HepG2 cells xenografted mouse model assessed as reduction Golgi-associated apoptotic proteins (GAAPs) expression in tumor tissue at 5 to 10 mg/kg, ip administered once every 2 days for 21 days; assay type: functional, organism-based; conditions: dose 5-10 mg/kg, time 21.0 day
[29] = Toxicity in mouse xenografted with human HepG2 cells assessed as histopathological changes in lung at 5 to 10 mg/kg, ip administered once every 2 days for 21 days by H and E staining based analysis; assay type: organism-based; conditions: in vivo, 504 h, dose 5-10 mg/kg, time 21 day
[30] = Toxicity in mouse xenografted with human HepG2 cells assessed as histopathological changes in kidney at 5 to 10 mg/kg, ip administered once every 2 days for 21 days by H and E staining based analysis; assay type: organism-based; conditions: in vivo, 504 h, dose 5-10 mg/kg, time 21 day
[31] = Toxicity in mouse xenografted with human HepG2 cells assessed as aspartate aminotransferase (AST) at 5 to 10 mg/kg, ip administered once every 2 days for 21 days; assay type: organism-based; conditions: in vivo, 504 h, dose 5-10 mg/kg, time 21 day
[32] = Toxicity in mouse xenografted with human HepG2 cells assessed as creatine kinase (CK) at 5 to 10 mg/kg, ip administered once every 2 days for 21 days; assay type: organism-based; conditions: in vivo, 504 h, dose 5-10 mg/kg, time 21 day

## NS(=O)(=O)c1ccc(NC(=O)CCCCCNc2c(Nc3cc(C(F)(F)F)cc(C(F)(F)F)c3)c(=O)c2=O)cc1
Lipid bilayer [1]
  Activity: Active
Lipid bilayer [2]
  Activity: Active
A2780
  IC50: > 50 µM
HepG2 [3]
  IC50: 7.13 µM
HepG2 [4]
  Activity: inactive
HepG2 [5]
  EC50: 13.8 µM
HepG2 [6]
  Activity: Active
HepG2 [7]
  Activity: Active
HepG2 [8]
  Activity: Active
HepG2 [9]
  Activity: 0.13
HepG2 [10]
  Activity: 0.58
HepG2 [11]
  Activity: 0.83
HepG2 [12]
  viability at 5 µM: 73.5%
HepG2 [13]
  Activity: 12%
HepG2 [14]
  Activity: 1.64%
HepG2 [15]
  Activity: 24.6%
HepG2 [16]
  viability at 20 µM: 22.1%
HepG2 [17]
  Activity: 34.2%
HepG2 [18]
  Activity: 36.5%
HepG2 [19]
  Activity: 7.19%
HepG2 [20]
  Activity: 6.95%
HepG2 [21]
  Activity: 44.07%
HepG2 [22]
  inhibition in vivo at 5 mg/kg: 62%
HepG2 [23]
  inhibition in vivo at 10 mg/kg: 77%
[24]
  Activity: Non-toxic
[25]
  Activity: Non-toxic
HepG2 [26]
  Activity: Active
HepG2 [27]
  Activity: Active
HepG2 [28]
  Activity: Active
[29]
  Activity: Non-toxic
[30]
  Activity: Non-toxic
[31]
  Activity: Non-toxic
[32]
  Activity: Non-toxic
